{"source": "patent US20040101827A1", "about": "“Methods of infection with hepatitis c virus” (priority 2000, published 2004)", "tested_on": "HCV", "test": "Yield of HCV (HCV RNA level) in culture supernatant of HCV cDNA-introduced IMY42-5 cells, real-time detection RT-PCR", "format": "cell-based, hepatitis C virus", "details": "ribavirin 0, 25, 50, 100, 200 μM added simultaneously with Tam, cultured for 2 days (FIG. 10)", "procedure": "IMY42-5 cells were prepared by incorporating into IMY-N9 cells, pCALN/HCV RBZ and CAG-Mer-Cre-Mer (Nucleic Acids Res., 1996, 24(4), 543-548) that expresses active Cre recombinant enzyme by adding tamoxifen co-expressed constitutively therein. When tamoxifen acts on the cells, the stuffer region of pCALN/HCV RBZ was looped out and HCV cDNA was expressed.\nIMY42-5 cells (2.5×10^5/ml) were inoculated, 100 μl/well in a 96-well plate, and then cultured overnight at 37° C. under 5% CO2 atmosphere. Then 4-hydroxi-tamoxifen (Tam) was added at a concentration of 100 nM. On the next day and 3 days after the addition of Tam, the culture supernatant was collected. RNA in the culture supernatant was extracted using ISOGEN-LS (Wako Pure Chemical Industries, Ltd.), and then HCV RNA levels were quantified by the Real-time detection RT-PCR (Takeuchi T. et al; Gastroenterology 1999; 116: 636-642) method.\nCsA (100, 10, 1 and 0 nM) was added simultaneously with the addition of Tam to IMY42-5 cells. The cells were cultured for 3 days, and then HCV RNA levels in the culture supernatant was measured by Real-time detection RT-PCR.\nRibavirin (0, 25, 50, 100, 200 μM) was added simultaneously with the addition of Tam to IMY42-5 cells. The cells were cultured for 2 days, and then HCV RNA levels in the culture supernatant were measured.", "data": [{"smiles": "NC(=O)c1ncn([C@@H]2O[C@H](CO)[C@@H](O)[C@H]2O)n1", "note": "[Ribavirin, ribavirin]", "values": [{"measurement": "HCV RNA levels in the culture supernatant (yield of virus)", "value": "no decrease"}]}]}
